From ChEMBL document CHEMBL5393446, “3-(1-oxo-5-(piperidin-4-yl)isoindolin-2-yl)piperidine-2,6-dione derivatives and uses thereof” (2022)

Target: Zinc finger protein Helios (Homo sapiens) (UniProt Q9UKS7)
Assay: Induction of IKZF2 degradation in human GripTite 293 MSR cells at 30 uM incubated for 24 hrs by PathHunter assay relative to control
Format: cell-based

Chain of Zinc finger protein Helios (Homo sapiens) (Q9UKS7 whole entry): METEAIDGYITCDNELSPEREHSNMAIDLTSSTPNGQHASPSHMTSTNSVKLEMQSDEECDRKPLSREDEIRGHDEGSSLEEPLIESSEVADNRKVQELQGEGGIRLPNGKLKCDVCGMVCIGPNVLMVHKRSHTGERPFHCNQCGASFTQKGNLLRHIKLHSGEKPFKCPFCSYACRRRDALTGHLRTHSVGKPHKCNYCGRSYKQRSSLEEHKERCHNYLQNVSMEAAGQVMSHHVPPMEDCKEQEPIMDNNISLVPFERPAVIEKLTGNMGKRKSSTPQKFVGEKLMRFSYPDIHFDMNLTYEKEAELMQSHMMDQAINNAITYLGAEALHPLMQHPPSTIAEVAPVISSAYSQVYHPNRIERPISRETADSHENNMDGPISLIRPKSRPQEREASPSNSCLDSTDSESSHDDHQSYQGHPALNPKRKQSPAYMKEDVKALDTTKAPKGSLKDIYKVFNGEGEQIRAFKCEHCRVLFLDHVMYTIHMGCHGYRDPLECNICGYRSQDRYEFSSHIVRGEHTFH

SMILES | Activity
CC1CC(c2ccc3c(c2)CN(C2CCC(=O)NC2=O)C3=O)CC(C)N1 (configuration not stated) | 30%
CC1CC(c2ccc3c(c2)CN(C2CCC(=O)NC2=O)C3=O)CC(C)N1Cc1ccccc1 (configuration not stated) | 35%
